This note sets out measurements from patent US7846946B2, “Heteroatom-linked substituted piperidines and derivatives thereof useful as histamine H3 antagonists” (Schering Plough Corporation, priority 2005, dated 2010).

Experiment [1] addresses T1, recombinant human H3 receptor, expressed in HEK-293 cells (Homo sapiens, UniProt Q9Y5N1).
T1 construct: expressed in transfected cells; host or cells: HEK-293 (human embryonic kidney) cells
The experiment in a line: H3-receptor binding assay, recombinant human receptor. The settings on record: recombinant human receptor assay (HEK-293). How it is done:
(§1) General Procedure for H3-Receptor Binding Assay
(§2) The source of the H3 receptors in this experiment was guinea pig brain. Alternatively, the source of H3 receptors was recombinant human receptor, expressed in HEK-293 (human embryonic kidney) cells.
All compounds to be tested were dissolved in DMSO and then diluted into the binding buffer (50 mM Tris, pH 7.5) such that the final concentration was 2 μg/ml with 0.1% DMSO. Membranes were then added (400 μg of protein, 5 μg in the case of recombinant human receptor) to the reaction tubes. The reaction was started by the addition of 3 nM [^3H]R-α-methyl histamine (8.8 Ci/mmol) or 3 nM [^3H]Na^α-methyl histamine (80 Ci/mmol) and continued under incubation at 30° C. for 30 min. Bound ligand was separated from unbound ligand by filtration, and the amount of radioactive ligand bound to the membranes was quantitated by liquid scintillation spectrometry. All incubations were performed in duplicate and the standard error was always less than 10%. Compounds that inhibited more than 70% of the specific binding of radioactive ligand to the receptor were serially diluted to determine a Ki (nM).

In experiment [2] the target is T2, H3 receptors (guinea pig brain) (Cavia porcellus, UniProt Q9JI35).
T2 construct: The brain tissue was homogenized with a solution of 50 mM Tris, pH 7.5; from tissue; host or cells: guinea pig brain membranes
The experiment in a line: H3-receptor binding assay, guinea pig receptor. The settings on record: radioligand [3H]R-α-methyl histamine or [3H]Nα-methyl histamine. How it is done: as §1, §2
The animals weighed 400-600 g. The brain tissue was homogenized with a solution of 50 mM Tris, pH 7.5. The final concentration of tissue in the homogenization buffer was 10% w/v. The homogenates were centrifuged at 1,000×g for 10 min. in order to remove clumps of tissue and debris. The resulting supernatants were then centrifuged at 50,000×g for 20 min. in order to sediment the membranes, which were next washed three times in homogenization buffer (50,000×g for 20 min. each). The membranes were frozen and stored at −70° C. until needed.
All compounds to be tested were dissolved in DMSO and then diluted into the binding buffer (50 mM Tris, pH 7.5) such that the final concentration was 2 μg/ml with 0.1% DMSO. Membranes were then added (400 μg of protein, 5 μg in the case of recombinant human receptor) to the reaction tubes. […] Bound ligand was separated from unbound ligand by filtration, and the amount of radioactive ligand bound to the membranes was quantitated by liquid scintillation spectrometry. […]

T2 sequence (Q9JI35 whole entry): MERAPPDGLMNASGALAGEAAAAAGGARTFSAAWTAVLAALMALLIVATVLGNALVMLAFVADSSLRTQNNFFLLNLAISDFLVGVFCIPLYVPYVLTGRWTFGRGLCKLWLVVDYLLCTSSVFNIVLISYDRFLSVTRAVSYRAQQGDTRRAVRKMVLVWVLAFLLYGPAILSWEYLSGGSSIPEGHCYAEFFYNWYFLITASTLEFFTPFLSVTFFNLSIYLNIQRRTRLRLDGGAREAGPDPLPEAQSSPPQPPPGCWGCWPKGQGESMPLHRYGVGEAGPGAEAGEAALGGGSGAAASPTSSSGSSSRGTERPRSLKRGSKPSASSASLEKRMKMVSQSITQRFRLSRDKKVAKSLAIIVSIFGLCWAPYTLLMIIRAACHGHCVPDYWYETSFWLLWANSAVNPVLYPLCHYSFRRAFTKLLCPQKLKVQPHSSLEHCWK
T1 sequence (Q9Y5N1 whole entry): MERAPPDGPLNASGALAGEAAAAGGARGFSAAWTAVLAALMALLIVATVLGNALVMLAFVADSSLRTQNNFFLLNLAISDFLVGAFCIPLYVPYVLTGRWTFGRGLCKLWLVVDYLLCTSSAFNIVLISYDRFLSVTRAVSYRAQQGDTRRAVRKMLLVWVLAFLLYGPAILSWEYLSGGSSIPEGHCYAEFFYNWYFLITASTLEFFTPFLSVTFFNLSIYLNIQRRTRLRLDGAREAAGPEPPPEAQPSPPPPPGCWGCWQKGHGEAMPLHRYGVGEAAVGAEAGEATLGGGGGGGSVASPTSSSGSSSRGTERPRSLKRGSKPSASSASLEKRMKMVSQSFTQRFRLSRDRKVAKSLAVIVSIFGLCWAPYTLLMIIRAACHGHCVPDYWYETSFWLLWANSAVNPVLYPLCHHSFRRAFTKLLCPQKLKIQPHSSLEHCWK

Regarding `Nc1cc(CN2CCC(C(=O)N3CCC(NCc4ccc(F)cc4F)CC3)CC2)ccn1` [Example 256], the inhibitory constant (Ki) (usually the equilibrium dissociation constant of an inhibitor or competing ligand from its target) in experiment [1] came out at 0.7 nM.

`Cc1cc(C(=O)NCc2cccnc2NC2CCN(C(=O)C3CCN(Cc4ccnc(N)c4)CC3)CC2)no1` [Example 11] yielded a Ki in experiment [2] of 0.2 nM.
